Assay [1] deals with pulmonary artery smooth muscle cells (PASMC). The experiment in a line: PASMC cellular metabolism (alamarBlue assay). In kind it is cell-based, lamb. Particulars: WT-PKG-1α transfected PASMC; SIN-1 500 μM, 48 h. As to the method: This was determined via the alamarBlue assay (AbD Serotec, Oxford, UK). The assay is based on the reducing ability of metabolically active cells to convert the active reagent, resazurin, into a fluorescent and colorimetric indicator, resorufin. When added to cell cultures, the oxidized, resazurin enters the cytosol and is converted to the reduced, resorufin in the mitochondria by accepting electrons from NADH, NADPH, FADH2, FMNH2, as well as from the cytochromes. The non-toxic and cell permeable nature of alamarBlue permits the long-term exposure of cells. PASMC were grown on a 10 cm dish to 75% confluence, transfected with WT-PKG-1α or Y247F-PKG-1α cDNA, and incubated at 37° C. for 20 h. The cells were trypsinized and seeded onto a 24-well plate at a density of 20,000 cells per well and grown for an additional 4 h in serum and phenol free DMEM growth medium containing 1% FBS and antibiotics. The cells were then treated with or without SIN-1 (500 μM, 48 h) in the presence of 10% well volume of alamarBlue dye. The color change of the dye was determined at an excitation wavelength of 560 nm and an emission wavelength of 590 nm in a Fluoroskan Ascent plate reader. […] Cellular metabolism was expressed as follows: […]

Assay [2] has as its target T1, PKG-1α (Homo sapiens, UniProt Q13976).
T1 sequence (Q13976 2-671): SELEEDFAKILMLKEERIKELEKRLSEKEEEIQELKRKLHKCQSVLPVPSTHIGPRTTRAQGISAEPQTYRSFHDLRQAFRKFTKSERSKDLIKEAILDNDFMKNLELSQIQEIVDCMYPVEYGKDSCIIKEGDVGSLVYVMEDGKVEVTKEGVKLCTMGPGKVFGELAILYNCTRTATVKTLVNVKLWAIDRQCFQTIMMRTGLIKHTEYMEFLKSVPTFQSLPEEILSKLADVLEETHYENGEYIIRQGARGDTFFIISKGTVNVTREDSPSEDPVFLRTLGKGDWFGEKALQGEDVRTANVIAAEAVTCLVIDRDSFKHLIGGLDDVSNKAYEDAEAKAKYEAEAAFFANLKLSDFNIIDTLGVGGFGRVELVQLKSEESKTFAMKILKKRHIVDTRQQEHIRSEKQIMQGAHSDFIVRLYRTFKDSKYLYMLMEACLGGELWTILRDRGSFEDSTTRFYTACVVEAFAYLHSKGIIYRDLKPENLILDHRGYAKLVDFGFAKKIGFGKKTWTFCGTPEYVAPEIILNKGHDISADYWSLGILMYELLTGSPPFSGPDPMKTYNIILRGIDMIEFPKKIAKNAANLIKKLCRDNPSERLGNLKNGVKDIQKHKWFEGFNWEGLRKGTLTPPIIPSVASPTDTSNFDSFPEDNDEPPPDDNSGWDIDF
The assay can be described thus: PKG activity in transfected HEK-293T cells. Format: cell-based. Details: an expression plasmid containing a full length WT-PKG-1α cDNA; made in house; host or cells: HEK-293T. Particulars: HEK-293T expressing WT-PKG-1α; SIN-1 500 μM, 30 min. As to the method:
To determine the role of tyrosine 247 and tyrosine 425 in mediating the nitration dependent inhibition of PKG-1α kinase activity, Y247F- and Y425F-PKG-1α mutants were generated and expressed in HEK-293T cells. HEK-293T cells were transiently transfected with expression plasmids containing WT-, Y247F-, or Y425F-PKG-1α for 48 h. […] Protein extracts were immunoprecipitated using an antibody raised against PKG-1α and the level of nitrated PKG-1α determined by probing the membranes with an antiserum raised against 3-NT. The blots were then stripped and re-probed for PKG-1α to normalize for the efficiency of the immunoprecipitation.
Total PKG activity was determined using a non-radioactive immunoassay in cell lysates, according to the manufacturer's directions. […]
After incubation for 30 min at 30° C. to allow the phosphorylation of the bound substrate, an HRP conjugated anti-phosphothreonine specific antibody was added to convert a chromogenic substrate to a colorimetric substrate that was subsequently read spectrophotometrically at 450 nm. The change in absorbance reflected the relative activity of PKG in the sample. […] The kinetic constants were determined using nonlinear regression (curve fit) analysis (GraphPad Prism Software Inc.).

As to “3-morpholinosydnonimine N-ethylcarbamide [SIN-1]”, the metabolism result in assay [1] is “stimulated”. Moreover, the “cGMP dependent PKG activity” value in assay [2] is recorded as “attenuated”.

Values taken from patent US9551711B2, “Compositions and methods for detecting nitration of PKG-1α and methods of use thereof” (Augusta University Research Institute, Inc., priority 2013, dated 2017).
